Data as given in a melting point compilation (Tetko et al.; mined from patent text by program, amines drawn as free bases though some values may be those of a salt).

Row | melting point [°C] | SMILES
1 | 110 to 112 | CCOCc1nc2c(N)nc(C)c(C)c2n1CC(C)C
2 | 140 | CCn1c(=O)n(CCOCCOC)c(=O)c2c1ncn2Cc1ccccc1
3 | 136 to 137 | O=C(CCc1oc(-n2cnc3ccccc32)nc1-c1ccc(Cl)cc1)N1CCS(=O)(=O)C1
4 | 137 to 138 | COC(=O)Cc1c(C(=O)OC)ccn1CCI
5 | 112 to 114 | O=CC1=Cc2cc(OCc3ccccc3)ccc2OC1
6 | 79 | CCCCSc1ccc(C2CC(=O)C(C(=O)CC)=C(O)C2)cc1 (stereo not given)
7 | 187 to 188 | CCCCS(=O)Cc1ccc(CS(=O)CCCC)cc1 (stereo not given)
8 | 91 to 92 | Cc1cc(CCCCCOc2ccc(C3=NCCO3)cc2)no1
9 | > 250 | CC(=O)Nc1nc2ccc(S(=O)(=O)n3c(CCC(=O)O)cc4cc(Cl)ccc43)cc2s1
10 | 260 to 265 | CCc1ccc(-c2ccc3c(c2)C=C(C(=O)O)CCS3(=O)=O)cc1
11 | 162 to 164 | O=C1NC(=O)C(=Cc2ccc(N3CCC(NC[C@H](O)COc4cccc5[nH]c(=O)[nH]c45)CC3)c(F)c2)S1
12 | 40 | CC(=O)c1ccc(Cl)c2c1OC(F)(F)O2
13 | 77.5 to 79 | CCc1cn(C(CC)C(=O)N(C)C)nc1-c1ccccc1 (stereo not given)
14 | 93 | CCOC(=O)c1ccc(N)cc1Br
15 | 193 to 195 | N#Cc1cc(-c2ccoc2)c2ccc(COc3cc(F)cc(-c4cccnc4)c3)cc2n1
16 | 188 to 191 | O=C(Nc1ccc(-n2nc(C(F)(F)F)cc2C2CC2)cc1)c1c(F)cccc1F
17 | 91 to 93 | CCCC1(CCC)CCC2(CC1)CC(=O)OC(=O)C2
18 | 156 to 158 | O=C(O)c1cccnn1
19 | 257 to 258 | Cn1cnc(COc2nn3c(-c4cnccn4)nnc3cc2-c2ccccc2)n1

Row | melting point [°C] | SMILES
20 | 103 to 104 | CCOC(=O)c1ccc(-c2ccc(-c3cccc(OCOC)c3)c(-c3ccc4c(c3)C(C)(C)CCC4(C)C)c2)cc1
21 | 108 | CCOC(=O)c1ccc(C#CC(O)c2cccc3c2C(C)(C)CCS3)cc1 (stereo not given)
22 | 180 to 183 | COc1ccc(Cl)cc1C(=O)NCCc1ccc(C(C)=CCC(=O)O)cc1
23 | 204 to 207 | O=C(O)CNC(=O)NC(=O)C(CC1CCCC1)c1ccc(Cl)c(Cl)c1 (stereo not given)
24 | 126 to 128 | Cc1cc(O)ccc1-c1nn(CC(C)C)c2c(F)cccc12
25 | 106 to 108 | CCCCC(C)(Cc1ccc(OCCNC(=O)c2ccc(-c3ccccn3)cc2)cc1)C(=O)O (stereo not given)
26 | 180 to 182 | O=C(c1cc2ccc(O)cc2[nH]1)N1CCC(Cc2ccc(F)cc2)CC1
27 | 174 to 176 | N#Cc1ccc(NC(=O)[C@H]2NCC[C@@H]2O)c2ccccc12
28 | 76 to 78 | COCc1cccc2c1OCCC(C(=O)OC)=C2
29 | 64 | Cc1c(CCCCCCCCC(=O)O)cccc1C(=O)c1ccc(Cl)cc1
30 | 108 to 109 | Oc1ccc(-c2nc3ccccc3s2)cc1
31 | 248 to 251 | Cc1cc(Cl)c(Cl)cc1NC(=O)C1(C(=O)O)CC1
32 | 204 to 206 | Cn1ncnc1COc1nn2c(-c3ccco3)nncc2c1-c1ccccc1F
33 | 126 to 128 | CN(Cc1ccccc1)Cc1c(-c2ccc(N)cc2)sc2c1c(=O)c(C(=O)c1ccccc1)cn2Cc1c(F)cccc1F
34 | 128 to 129 | Cn1c(=O)oc2c(OC3CCCCO3)cccc21 (stereo not given)
35 | 89 to 90 | CCOP(=O)(/C=C/c1cn(-c2ccccc2)nc1OCc1ccccc1)OCC
36 | 250 to 253 | O=C(O)c1ccc(NN=C2CCCC2)cc1
37 | 262 to 263 | N#CC1=C2C(=NC1=O)c1c(Sc3ccc(Br)cc3)ccc3c(Sc4ccc(Br)cc4)ccc2c13
38 | 112 to 114 | COc1ccc(-c2cccc(NC(C)=O)c2)cc1OC1CCCC1

Row | SMILES | melting point [°C]
39 | CCCCCCc1cc2c(s1)-n1c(C)nnc1CN=C2c1cc(OC)c(OC)c(OC)c1 | 111 to 113
40 | CN1C(=O)[C@H](NC(=O)Cc2ccc(C(F)(F)F)cc2)N=C(c2ccccc2)c2ccccc21 | 224 to 226
